Structures can show the parent of a compound that is named as a salt.
Key:
[1] = target: PI3Kγ (p110γ) Recombinant Human Protein (Homo sapiens (Human), UniProt P48736); experiment: PI3K-γ Scintillation Proximity Assay; assay type: biochemical; conditions: 20 μM PIP2, 2 μM ATP, 13 nM PI3Kγ, 120 min
Description: Example B. PI3K-γ Scintillation Proximity Assay
(§1) [γ-^33P]ATP (10 mCi/mL) and Wheat Germ Agglutinin (WGA) YSi SPA Scintillation Beads was purchased from Perkin Elmer (Waltham, Mass.). Lipid kinase substrate, D-myo-Phosphatidylinositol 4,5-bisphosphate (PtdInS(4,5)P2)D (+)-sn-1,2-di-O-octanoylglyceryl, 3-O-phospho linked (PIP2), CAS 204858-53-7, was purchased from Echelon Biosciences (Salt Lake City, Utah). PI3Kγ (p110γ) Recombinant Human Protein was purchased from Life technology (Grand Island, N.Y.). ATP, MgCl2, DTT, EDTA, MOPS and CHAPS were purchased from Sigma Aldrich (St. Louis, Mo.).
(§2) The kinase reaction was conducted in polystyrene 384-well Greiner Bio-one white plate from Thermo Fisher Scientific in a final volume of 25 μL. Inhibitors were first diluted serially in DMSO and added to the plate wells before the addition of other reaction components. The final concentration of DMSO in the assay was 2%. The PI3Kγ assay was carried out at room temperature in 20 mM MOPS, pH 6.7, 10 mM MgCl2, 5 mM DTT and CHAPS 0.03%. Reactions were initiated by the addition of ATP, the final reaction mixture consisted of 20 μM PIP2, 2 μM ATP, 0.5 μCi [γ-^33p]ATP, 13 nM PI3Kγ. Reactions were incubated for 120 min and terminated by the addition of 40 μL SPA beads suspended in quench buffer: 163 mM potassium phosphate pH 7.8, 20% glycerol, 25 mM EDTA. The final concentration of SPA beads is 1.0 mg/mL. After the plate sealing, plates were shaken overnight at room temperature and centrifuged at 1500 rpm for 10 min, the radioactivity of the product was determined by scintillation counting on Topcount (PerkinElmer). IC50 determination was performed by fitting the curve of percent of the solvent control activity versus the log of the inhibitor concentration using the GraphPad Prism 6.0 software.

[2] = target: PI3Kδ (p110δ/p85α) Recombinant Human Protein (Homo sapiens (Human), UniProt O00329); experiment: PI3Kδ Scintillation Proximity Assay; assay type: biochemical; conditions: 20 μM PIP2, 2 μM ATP, 3.4 nM PI3Kδ, 120 min
PI3Kδ (p110δ/p85α) Recombinant Human Protein, sequence (O00329 whole entry): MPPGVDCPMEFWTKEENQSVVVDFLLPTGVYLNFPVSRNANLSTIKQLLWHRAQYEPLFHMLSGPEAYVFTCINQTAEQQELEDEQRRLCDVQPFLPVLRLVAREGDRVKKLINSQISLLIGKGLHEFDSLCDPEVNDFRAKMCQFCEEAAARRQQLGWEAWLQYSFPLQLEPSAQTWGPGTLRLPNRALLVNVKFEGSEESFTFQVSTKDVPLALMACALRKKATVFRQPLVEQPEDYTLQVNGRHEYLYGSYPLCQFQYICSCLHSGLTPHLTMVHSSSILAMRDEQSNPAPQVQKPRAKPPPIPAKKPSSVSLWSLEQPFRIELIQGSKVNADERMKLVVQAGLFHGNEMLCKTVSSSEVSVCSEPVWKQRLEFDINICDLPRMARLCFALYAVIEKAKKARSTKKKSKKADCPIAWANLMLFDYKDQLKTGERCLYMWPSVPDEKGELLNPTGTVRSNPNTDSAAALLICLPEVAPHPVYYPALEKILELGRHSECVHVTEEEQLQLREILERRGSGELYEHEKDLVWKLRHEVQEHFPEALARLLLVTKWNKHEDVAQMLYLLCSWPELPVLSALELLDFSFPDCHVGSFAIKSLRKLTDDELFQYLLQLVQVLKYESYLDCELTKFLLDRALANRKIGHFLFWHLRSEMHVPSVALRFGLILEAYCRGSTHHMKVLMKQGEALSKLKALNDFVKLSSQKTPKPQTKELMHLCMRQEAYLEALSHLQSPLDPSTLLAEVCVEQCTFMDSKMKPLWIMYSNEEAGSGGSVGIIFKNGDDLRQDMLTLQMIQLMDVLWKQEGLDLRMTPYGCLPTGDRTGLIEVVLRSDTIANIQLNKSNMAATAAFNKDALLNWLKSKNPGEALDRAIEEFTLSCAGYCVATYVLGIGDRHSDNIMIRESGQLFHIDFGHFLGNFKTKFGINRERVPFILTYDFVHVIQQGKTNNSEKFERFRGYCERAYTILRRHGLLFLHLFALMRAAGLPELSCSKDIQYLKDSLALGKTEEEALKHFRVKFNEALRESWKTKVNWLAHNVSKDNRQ
PI3Kδ (p110δ/p85α) Recombinant Human Protein, sequence (P27986 whole entry partner): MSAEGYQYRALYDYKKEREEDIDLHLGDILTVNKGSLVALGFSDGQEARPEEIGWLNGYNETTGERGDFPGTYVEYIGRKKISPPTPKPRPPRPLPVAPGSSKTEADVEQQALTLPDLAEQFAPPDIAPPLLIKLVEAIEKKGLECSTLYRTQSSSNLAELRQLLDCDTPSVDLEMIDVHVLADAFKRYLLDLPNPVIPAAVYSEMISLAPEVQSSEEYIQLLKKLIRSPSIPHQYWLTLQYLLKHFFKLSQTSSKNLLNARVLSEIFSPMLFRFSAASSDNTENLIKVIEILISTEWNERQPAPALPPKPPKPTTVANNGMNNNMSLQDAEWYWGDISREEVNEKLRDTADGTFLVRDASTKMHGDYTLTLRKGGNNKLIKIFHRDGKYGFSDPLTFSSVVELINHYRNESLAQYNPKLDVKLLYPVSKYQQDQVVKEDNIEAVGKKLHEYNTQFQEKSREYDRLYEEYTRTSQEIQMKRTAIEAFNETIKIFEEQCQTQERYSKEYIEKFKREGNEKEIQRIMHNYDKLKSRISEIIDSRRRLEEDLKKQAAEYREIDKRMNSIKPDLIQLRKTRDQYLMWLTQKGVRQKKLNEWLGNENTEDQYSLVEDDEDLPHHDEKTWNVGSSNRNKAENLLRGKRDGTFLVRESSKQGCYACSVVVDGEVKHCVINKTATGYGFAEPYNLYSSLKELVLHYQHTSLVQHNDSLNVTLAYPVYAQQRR
Description: Example C. PI3Kδ Scintillation Proximity Assay
as §1, with “PI3Kδ (p110δ/p85α)” for “PI3Kγ (p110γ)”, “Eurofins (St Charles, Mo.).” for “Life technology (Grand Island, N.Y.).”
as §2, with “PI3Kδ” for “PI3Kγ”, “[γ-^33P]ATP, 3.4” for “[γ-^33p]ATP, 13”, “PI3Kδ.” for “PI3Kγ.”

PI3Kγ (p110γ) Recombinant Human Protein, sequence (P48736 whole entry): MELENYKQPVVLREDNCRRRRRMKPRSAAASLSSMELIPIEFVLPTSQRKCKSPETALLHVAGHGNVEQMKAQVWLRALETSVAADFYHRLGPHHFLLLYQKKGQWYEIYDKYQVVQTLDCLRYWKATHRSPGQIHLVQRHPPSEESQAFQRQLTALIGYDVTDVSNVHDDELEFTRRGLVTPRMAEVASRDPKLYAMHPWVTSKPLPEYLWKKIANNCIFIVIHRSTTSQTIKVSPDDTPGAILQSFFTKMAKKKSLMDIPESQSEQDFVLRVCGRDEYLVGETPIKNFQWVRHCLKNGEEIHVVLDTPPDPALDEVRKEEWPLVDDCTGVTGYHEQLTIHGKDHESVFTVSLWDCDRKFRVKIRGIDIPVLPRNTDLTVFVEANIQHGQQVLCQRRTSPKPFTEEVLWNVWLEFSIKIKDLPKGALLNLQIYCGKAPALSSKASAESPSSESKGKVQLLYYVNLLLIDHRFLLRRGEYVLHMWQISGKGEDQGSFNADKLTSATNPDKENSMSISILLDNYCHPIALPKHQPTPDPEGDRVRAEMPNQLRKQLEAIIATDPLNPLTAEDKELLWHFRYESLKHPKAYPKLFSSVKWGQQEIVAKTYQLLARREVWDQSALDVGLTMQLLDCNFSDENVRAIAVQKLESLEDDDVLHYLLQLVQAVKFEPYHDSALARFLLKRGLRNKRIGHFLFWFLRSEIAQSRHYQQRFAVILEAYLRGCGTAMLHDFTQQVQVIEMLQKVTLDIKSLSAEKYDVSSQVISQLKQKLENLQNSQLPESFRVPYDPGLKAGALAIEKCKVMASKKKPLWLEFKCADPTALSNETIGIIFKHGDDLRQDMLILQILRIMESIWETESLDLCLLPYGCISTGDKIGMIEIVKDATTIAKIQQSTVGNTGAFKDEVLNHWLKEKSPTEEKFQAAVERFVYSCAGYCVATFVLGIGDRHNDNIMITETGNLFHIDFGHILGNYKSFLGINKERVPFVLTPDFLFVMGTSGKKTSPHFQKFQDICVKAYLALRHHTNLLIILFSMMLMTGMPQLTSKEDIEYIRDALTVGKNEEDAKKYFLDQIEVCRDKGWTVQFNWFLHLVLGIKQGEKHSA

Row | Structure (SMILES) | IC50 [1] [nM] | IC50 [2] [nM]
1 | CC(c1ccccc1)N1Cc2cc(-c3cnc4c(N)nc(C(F)(F)F)cn34)ccc2C1=O (racemic) [Example 11, 5-(8-Amino-6-(trifluoromethyl)imidazo[1,2-a]pyrazin-3-yl)-2-(1-phenylethyl)isoindolin-1-one 1.4× trifluoroacetate salt] | ≤ 100 | ≥ 2000
2 | CC(C1CC1)n1nc2ccc(-c3cnc4c(N)ncnn34)cc2n1 (racemic) [Example 20, 7-(2-(1-cyclopropylethyl)-2H-benzo[d][1,2,3]triazol-5-yl)imidazo[2,1-f][1,2,4]triazin-4-amine trifluoroacetate salt] | ≤ 500 | ≥ 2000
3 | CC(C)(C)OC(=O)NCC(C1CC1)N1Cc2cc(-c3cnc4c(N)nc(C(F)(F)F)cn34)ccc2C1=O (racemic) [Example 41, tert-Butyl (2-(5-(8-amino-6-(trifluoromethyl)imidazo[1,2-a]pyrazin-3-yl)-1-oxoisoindolin-2-yl)-2-cyclopropylethyl)carbamate] | ≤ 500 | ≥ 2000
4 | NCC(C1CC1)N1Cc2cc(-c3cnc4c(N)nc(C(F)(F)F)cn34)ccc2C1=O (racemic) [Example 42, 2-(2-Amino-1-cyclopropylethyl)-5-(8-amino-6-(trifluoromethyl)imidazo[1,2-a]pyrazin-3-yl)isoindolin-1-one, trifluoroacetate salt] | < 2000 | ≥ 2000
5 | CS(=O)(=O)NCC(C1CC1)N1Cc2cc(-c3cnc4c(N)nc(C(F)(F)F)cn34)ccc2C1=O (racemic) [Example 43, N-(2-(5-(8-Amino-6-(trifluoromethyl)imidazo[1,2-a]pyrazin-3-yl)-1-oxoisoindolin-2-yl)-2-cyclopropylethyl)methanesulfonamide, trifluoroacetate salt] | < 2000 | ≥ 2000
6 | CC(=O)NCC(C1CC1)N1Cc2cc(-c3cnc4c(N)nc(C(F)(F)F)cn34)ccc2C1=O (racemic) [Example 44, N-(2-(5-(8-Amino-6-(trifluoromethyl)imidazo[1,2-a]pyrazin-3-yl)-1-oxoisoindolin-2-yl)-2-cyclopropylethyl)acetamide, trifluoroacetate salt] | < 2000 | ≥ 2000
7 | CNC(=O)C(C1CC1)N1Cc2cc(-c3cnc4c(N)nc(C(F)(F)F)cn34)ccc2C1=O (racemic) [Example 45, 2-(5-(8-Amino-6-(trifluoromethyl)imidazo[1,2-a]pyrazin-3-yl)-1-oxoisoindolin-2-yl)-2-cyclopropyl-N-methylacetamide, trifluoroacetate salt] | < 2000 | ≥ 2000
8 | Nc1nc(C(F)(F)F)cn2c(-c3ccc4c(c3)CN(C(CO)C3CC3)C4=O)cnc12 (racemic) [Example 46, 5-(8-Amino-6-(trifluoromethyl)imidazo[1,2-a]pyrazin-3-yl)-2-(1-cyclopropyl-2-hydroxyethyl)isoindolin-1-one, trifluoroacetate salt] | ≤ 500 | ≥ 2000
9 | Nc1nc(C(F)(F)F)cn2c(-c3ccc4c(c3)CN(C(C(=O)O)C3CC3)C4=O)cnc12 (racemic) [Example 47, 2-(5-(8-Amino-6-(trifluoromethyl)imidazo[1,2-a]pyrazin-3-yl)-1-oxoisoindolin-2-yl)-2-cyclopropylacetic acid, trifluoroacetate salt] | < 2000 | ≥ 2000
10 | C[C@@H](C1CC1)N1Cc2cc(-c3cnc4c(N)nc(C(=O)N5CC(O)C5)cn34)ccc2C1=O (single isomer, unassigned) [Example 30, trifluoroacetate salt] | ≤ 100 | ≥ 2000
11 | Nc1nc(C(F)(F)F)cn2c(-c3ccc4c(c3)CNC4=O)cnc12 [Example 4, 5-(8-Amino-6-(trifluoromethyl)imidazo[1,2-a]pyrazin-3-yl)isoindolin-1-one trifluoroacetate salt] | < 2000 | < 2000
12 | CCN1Cc2cc(-c3cnc4c(N)nc(C(F)(F)F)cn34)ccc2C1=O [Example 9, 5-(8-Amino-6-(trifluoromethyl)imidazo[1,2-a]pyrazin-3-yl)-2-ethylisoindolin-1-one trifluoroacetate salt] | ≤ 500 | < 2000
13 | CCN1Cc2cc(-c3cnc4c(N)ncnn34)ccc2C1=O [Example 10, 5-(4-Aminoimidazo[2,1-f][1,2,4]triazin-7-yl)-2-ethylisoindolin-1-one trifluoroacetate salt] | ≤ 500 | < 2000
14 | Cc1cc(-c2cnc3c(N)ncnn23)cc2cnn(C(C)C3CC3)c12 (stereo not shown) [Example 19, 7-(1-(1-Cyclopropylethyl)-7-methyl-1H-indazol-5-yl)imidazo[2,1-f][1,2,4]triazin-4-amine trifluoroacetate salt] | ≤ 500 | ≥ 2000
15 | CC(C)c1nc2ccc(-c3cnc4c(N)ncnn34)cn2n1 [Example 21, 7-(2-Isopropyl-[1,2,4]triazolo[1,5-a]pyridin-6-yl)imidazo[2,1-f][1,2,4]triazin-4-amine trifluoroacetate salt] | ≤ 500 | ≥ 2000
16 | CC(C)c1cn2cc(-c3cnc4c(N)ncnn34)ccc2n1 [Example 22, 7-(2-isopropylimidazo[1,2-a]pyridin-6-yl)imidazo[2,1-f][1,2,4]triazin-4-amine] | ≤ 500 | ≥ 2000
17 | CC(C)c1cc2cc(-c3cnc4c(N)ncnn34)ccn2n1 [Example 23, 7-(2-Isopropylpyrazolo[1,5-a]pyridin-5-yl)imidazo[2,1-f][1,2,4]triazin-4-amine trifluoroacetate salt] | ≤ 500 | ≥ 2000
18 | CC(C)c1cc2nc(-c3cnc4c(N)ncnn34)ccn2n1 [Example 24, 7-(2-Isopropylpyrazolo[1,5-a]pyrimidin-5-yl)imidazo[2,1-f][1,2,4]triazin-4-amine trifluoroacetate salt] | < 2000 | ≥ 2000
19 | CC(C1CC1)n1cc2cc(-c3cnc4c(N)ncnn34)ncc2n1 (stereo not shown) [Example 26, 7-(2-(1-Cyclopropylethyl)-2H-pyrazolo[3,4-c]pyridin-5-yl)imidazo[2,1-f][1,2,4]triazin-4-amine, trifluoroacetate] | ≤ 100 | ≥ 2000
20 | CC(c1cn2cc(-c3cnc4c(N)ncnn34)ccc2n1)C1CC1 (stereo not shown) [Example 27, 7-(2-(1-Cyclopropylethyl)imidazo[1,2-a]pyridin-6-yl)imidazo[2,1-f][1,2,4]triazin-4-amine trifluoroacetate salt] | ≤ 100 | ≥ 2000
